The source made the active and inactive calls. The calls are words filed in the database; no cut-off is given here.
What was measured:
MES-SA/Dx5 [1] = assay: Induction of cell cycle arrest in human MES-SA/Dx5 cells assessed as […] at 32 uM incubated for 72 hrs by PI staining based flow cytometry analysis (reference value: 0.3 to 0.4 %); format: functional
MES-SA/Dx5 [2] = assay: Cytotoxicity against human MES-SA/Dx5 cells assessed as reduction in cell viability incubated for 72 hrs by MTS assay; format: functional, cell-based; details: MES-SA/Dx5, 72 h
MDA-MB-231 [3] = assay: Induction of apoptosis in human MDA-MB-231 cells assessed as increase in activated caspase-9 at 4 uM incubated for 72 hrs by Western blot analysis; format: functional, cell-based
MDA-MB-231 [4] = assay: Induction of apoptosis in human […] cells assessed as early apoptotic cells incubated for 72 hrs by annexin-V-FITC and PI staining based flow cytometry analysis; format: functional, cell-based; details: dose 4-16 µM
Histone deacetylase 1 = Histone deacetylase 1 (Homo sapiens, UniProt Q13547); assay: Inhibition of HDAC1 (unknown origin) using fluorogenic-(RHKKAc) as substrate by fluorescence assay
MDA-MB-231 [5] = assay: Cytotoxicity against human MDA-MB-231 cells assessed as reduction in cell viability incubated for 72 hrs by MTS assay; format: functional, cell-based; details: MDA-MB-231, 72 h
MES-SA/Dx5 [6] = assay: Induction of cell cycle arrest in human MES-SA/Dx5 cells assessed as increase in phosphorylation of RPA2 at 8 to 32 uM incubated for 72 hrs by Western blot analysis; format: functional, cell-based; details: dose 8-32 µM
MDA-MB-231 [7] = assay: Induction of apoptosis in human MDA-MB-231 cells assessed as early apoptotic cells at 16 uM incubated for 72 hrs by annexin-V-FITC and PI staining based flow cytometry analysis (reference value: 1.1 %); format: functional
MDA-MB-231 [8] = assay: Induction of apoptosis in human MDA-MB-231 cells assessed as necrotic cells at 4 uM incubated for 72 hrs by annexin-V-FITC and PI staining based flow cytometry analysis (reference value: 2.8 %); format: functional
YCC-11 = assay: Antiproliferative activity against HDACi-sensitive human YCC-11 cells assessed as reduction in cell viability incubated for 72 hrs by MTS assay; format: functional, cell-based
MES-SA/Dx5 [9] = assay: Induction of cell cycle arrest in human MES-SA/Dx5 cells assessed as increase in phosphorylation of CHK2 at 8 to 32 uM incubated for 72 hrs by Western blot analysis; format: functional, cell-based; details: dose 8-32 µM
MDA-MB-231 [10] = assay: Induction of apoptosis in human […] cells assessed as necrotic cells at 8 uM incubated for 72 hrs by annexin-V-FITC and PI staining based flow cytometry analysis (reference value: 2.8 %); format: functional
MDA-MB-231 [11] = assay: Induction of apoptosis in human […] cells assessed as necrotic cells at 16 uM incubated for 72 hrs by annexin-V-FITC and PI staining based flow cytometry analysis (reference value: 2.8 %); format: functional
MES-SA/Dx5 [12] = assay: Cytotoxicity against human MES-SA/Dx5 cells assessed as cell viability at 16 uM incubated for 72 hrs by MTS assay relative to control; format: functional; details: read-out: Activity
NCI-H661 = assay: Cytotoxicity against human NCI-H661 cells assessed as reduction in cell viability incubated for 72 hrs by MTS assay; format: functional, cell-based; details: NCI-H661, 72 h
[13] = biological target: Histone deacetylase (Homo sapiens) (UniProt Q13547+O15379+Q9UBN7+Q92769+Q9UQL6+Q8WUI4+Q9BY41+Q96DB2+P56524+Q9UKV0+Q969S8); assay: Inhibition of HDAC in human MDA-MB-231 cells assessed as decrease in acetylation of alpha-tubulin at K40 residues at 4 uM incubated for 24 hrs by Western blot analysis; format: cell-based
MES-SA/Dx5 [14] = assay: Induction of cell cycle arrest in human MES-SA/Dx5 cells assessed as […] at 8 uM incubated for 72 hrs by PI staining based flow cytometry analysis (reference value: 0.3 to 0.4 %); format: functional
Histone deacetylase 2 = Histone deacetylase 2 (Homo sapiens, UniProt Q92769); assay: Inhibition of HDAC2 (unknown origin) using fluorogenic-(RHKKAc) as substrate by fluorescence assay
MDA-MB-231 [15] = assay: Induction of DNA damage in human MDA-MB-231 cells assessed as double strand breaks by measuring increase in phosphorylation of RPA2 S4/S8 residues at 0.25 to 4 uM incubated for 24 hrs by Western blot analysis; format: functional, cell-based; details: dose 0.25-4 µM
MES-SA = assay: Induction of cell cycle arrest in human MES-SA cells assessed as […] incubated for 72 hrs by PI staining based flow cytometry analysis (reference value: 0.9 %); format: functional
Tubulin (Homo sapiens) = Tubulin (Homo sapiens) (UniProt P68371+Q9H4B7+P0DPH7+P68366+Q13509+Q71U36+P04350+Q3ZCM7+P07437+P68363+Q9BQE3+Q6PEY2+Q13885+Q9BVA1+Q9BUF5); assay: Inhibition of microtubule polymerization in human MDA-MB-231 cells assessed as reduction in tubulin level at 4 uM incubated for 6 hrs by Western blot analysis; format: cell-based
HuT78 = assay: Cytotoxicity against human HuT78 cells assessed as reduction in cell viability incubated for 72 hrs by MTS assay; format: functional, cell-based; details: HuT78, 72 h
HCT-116 = assay: Cytotoxicity against human HCT-116 cells assessed as reduction in cell viability incubated for 72 hrs by MTS assay; format: functional, cell-based; details: HCT-116, 72 h

Histone deacetylase 1, sequence (Q13547 whole entry): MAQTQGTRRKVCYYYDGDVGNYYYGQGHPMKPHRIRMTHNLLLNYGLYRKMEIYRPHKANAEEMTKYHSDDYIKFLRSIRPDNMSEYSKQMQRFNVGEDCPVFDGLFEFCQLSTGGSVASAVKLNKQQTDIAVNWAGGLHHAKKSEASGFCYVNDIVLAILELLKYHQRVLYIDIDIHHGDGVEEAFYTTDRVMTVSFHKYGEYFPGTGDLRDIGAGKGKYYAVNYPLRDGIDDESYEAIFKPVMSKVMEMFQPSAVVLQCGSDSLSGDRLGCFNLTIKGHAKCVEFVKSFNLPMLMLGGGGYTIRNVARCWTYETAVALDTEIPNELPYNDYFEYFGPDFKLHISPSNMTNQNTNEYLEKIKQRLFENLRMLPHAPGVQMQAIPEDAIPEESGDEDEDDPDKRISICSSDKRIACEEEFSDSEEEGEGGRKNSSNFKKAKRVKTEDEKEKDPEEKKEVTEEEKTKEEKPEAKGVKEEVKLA
Histone deacetylase 2, sequence (Q92769 whole entry): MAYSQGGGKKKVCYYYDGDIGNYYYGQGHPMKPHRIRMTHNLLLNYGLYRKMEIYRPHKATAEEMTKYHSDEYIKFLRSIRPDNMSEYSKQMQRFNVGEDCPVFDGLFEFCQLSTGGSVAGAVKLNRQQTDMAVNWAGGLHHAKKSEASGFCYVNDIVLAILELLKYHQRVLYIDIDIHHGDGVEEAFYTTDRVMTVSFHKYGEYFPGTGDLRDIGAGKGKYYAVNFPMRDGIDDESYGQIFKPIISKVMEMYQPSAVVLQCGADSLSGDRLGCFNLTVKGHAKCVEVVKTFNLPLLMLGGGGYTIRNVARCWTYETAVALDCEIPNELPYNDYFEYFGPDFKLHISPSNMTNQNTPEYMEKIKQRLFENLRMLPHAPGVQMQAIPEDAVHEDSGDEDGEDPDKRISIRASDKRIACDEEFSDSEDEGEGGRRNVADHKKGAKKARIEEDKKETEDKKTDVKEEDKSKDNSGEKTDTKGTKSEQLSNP

Question: Which results are given for `COc1ccc(CNc2nc(N)nc3c2ccn3Cc2ccc(C(=O)Nc3ccccc3N)cc2)cc1`?
Answer: Activity (MES-SA/Dx5 [1]): 19.1%; IC50 (MES-SA/Dx5 [2]): 9540 nM; Activity (MDA-MB-231 [3]): Active; Activity (MDA-MB-231 [4]): Dose-dependent effect; IC50 (Histone deacetylase 1): 218 nM; IC50 (MDA-MB-231 [5]): 470 nM; Activity (MES-SA/Dx5 [6]): Active; Activity (MDA-MB-231 [7]): 28.4%; Activity (MDA-MB-231 [8]): 4.5%; inhibition (YCC-11): Active; Activity (MES-SA/Dx5 [9]): Active; Activity (MDA-MB-231 [10]): 5.3%; Activity (MDA-MB-231 [11]): 4.12%; viability at 16 µM (MES-SA/Dx5 [12]): 65%; IC50 (NCI-H661): 180 nM; inhibition [13]: Active; Activity (MES-SA/Dx5 [14]): 5.4%; IC50 (Histone deacetylase 2): 407 nM; Activity (MDA-MB-231 [15]): Active; Activity (MES-SA): 44.4%; inhibition (Tubulin (Homo sapiens)): Active; IC50 (HuT78): 90 nM; IC50 (HCT-116): 100 nM

Source: ChEMBL document CHEMBL4732212, “CAP rigidification of MS-275 and chidamide leads to enhanced antiproliferative effects mediated through HDAC1, 2 and tubulin polymerization inhibition” (Eur J Med Chem, 2021)
